In US8586550B2, “Thiazole derivatives as SGLT2 inhibitors and pharmaceutical composition comprising same” (Green Cross Corporation, priority 2010, dated 2013):

molecular target: T1, Human SGLT2 (hSGLT2) (Homo sapiens, UniProt P31639); assay: Sodium-dependent glucose transport (14C-AMG uptake) assay in CHO cells stably expressing hSGLT2; assay type: cell-based; conditions: CHO cells expressing hSGLT2, 14C-AMG uptake, 37° C. for 2 h; single determinations; read-out: hSGLT2 Inhibitory Activity IC50
T1 construct: expressed in transfected cells
T1 sequence (P31639 1-672): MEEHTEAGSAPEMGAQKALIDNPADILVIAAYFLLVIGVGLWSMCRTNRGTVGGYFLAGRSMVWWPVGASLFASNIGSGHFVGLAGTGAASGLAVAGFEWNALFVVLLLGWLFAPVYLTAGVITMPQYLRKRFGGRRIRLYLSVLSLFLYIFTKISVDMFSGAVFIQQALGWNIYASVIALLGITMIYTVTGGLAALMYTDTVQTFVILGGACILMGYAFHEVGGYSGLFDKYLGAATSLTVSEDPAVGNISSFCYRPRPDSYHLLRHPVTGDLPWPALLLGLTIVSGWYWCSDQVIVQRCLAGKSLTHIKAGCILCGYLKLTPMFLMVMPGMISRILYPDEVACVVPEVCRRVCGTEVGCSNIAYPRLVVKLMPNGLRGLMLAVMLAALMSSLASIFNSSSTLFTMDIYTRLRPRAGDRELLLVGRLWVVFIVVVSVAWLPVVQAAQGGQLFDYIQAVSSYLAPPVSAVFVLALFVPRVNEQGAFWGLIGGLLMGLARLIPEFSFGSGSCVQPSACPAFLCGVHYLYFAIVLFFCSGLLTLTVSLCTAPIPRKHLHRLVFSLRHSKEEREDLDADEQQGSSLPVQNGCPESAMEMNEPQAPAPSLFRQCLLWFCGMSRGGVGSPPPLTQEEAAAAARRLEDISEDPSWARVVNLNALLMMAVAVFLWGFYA
Description: Cloning and Cell Line Construction for Human SGLT2
Human SGLT2 (hSGLT2) gene was amplified by PCR from cDNA-Human Adult Normal Tissue Kidney (Invitrogen). The hSGLT2 sequence was cloned into pcDNA3.1(+) for mammalian expression and were stably transfected into chinese hamster ovary (CHO) cells. SGLT2-expressing clones were selected based on resistance to G418 antibiotic (Geneticin) and activity in the ^14C-α-methyl-D-glucopyranoside (^14C-AMG) uptake assay.
Inhibitory Effects on Human SGLT2 Activities
For sodium-dependent glucose transport assay, cells expressing hSGLT2 were seeded into a 96-well culture plate at a density of 5×10^4 cells/well in RPMI medium 1640 containing 10% fetal bovine serum. The cells were used 1 day after plating. They were incubated in pretreatment buffer (10 mM HEPES, 5 mM Tris, 140 mM choline chloride, 2 mM KCl, 1 mM CaCl2, and 1 mM MgCl2, pH 7.4) at 37° C. for 10 min. They were then incubated in uptake buffer (10 mM HEPES, 5 mM Tris, 140 mM NaCl, 2 mM KCl, 1 mM CaCl2, 1 mM MgCl2, and 1 mM ^14C-nonlabeled AMG, pH 7.4) containing ^14C-labeled (8 μM) and inhibitor or dimethylsulfoxide (DMSO) vehicle at 37° C. for 2 h. Cells were washed twice with washing buffer (pretreatment buffer containing 10 mM AMG at room temperature) and then the radioactivity was measured using a liquid scintillation counter. IC50 was determined by nonlinear regression analysis using GraphPad PRISM [Katsuno, K. et al. J. Pharmacol. Exp. Ther. 2007, 320, 323-330; Han, S. et al. Deabetes, 2008, 57, 1723-1729].

| IC50 | Compound |
| --- | --- |
| 6.77 nM | COc1c(Cc2ncc(-c3ccccc3)s2)cc([C@@H]2O[C@H](CO)[C@@H](O)[C@H](O)[C@H]2O)c2ccccc12 [Example 97, (2R,3S,4R,5R,6S)-2-(Hydroxymethyl)-6-(4-methoxy-3-((5-phenylthiazol-2-yl)methyl)naphthalen-1-yl)-tetrahydro-2H-pyran-3,4,5-triol] |
| 50.3 nM | CCOC(=O)c1cnc(Cc2cc([C@@H]3O[C@H](CO)[C@@H](O)[C@H](O)[C@H]3O)ccc2Cl)s1 [Example 106, Ethyl 2-(2-chloro-5-((2S,3R,4R,5S,6R)-3,4,5-trihydroxy-6-(hydroxymethyl)-tetrahydro-2H-pyran-2-yl)benzyl)thiazole-5-carboxylate] |
| 26.8 nM | COc1c(Cc2ncc(C3CCCC3)s2)cc([C@@H]2O[C@H](CO)[C@@H](O)[C@H](O)[C@H]2O)c2ccccc12 [Example 101, (2S,3R,4R,5S,6R)-2-(3-((5-Cyclopentylthiazol-2-yl)methyl)-4-methoxynaphthalen-1-yl)-6-(hydroxymethyl)-tetrahydro-2H-pyran-3,4,5-triol] |
| 58.2 nM | OC[C@H]1O[C@@H](c2cc(Cc3ncc(-c4ccc(F)cc4)s3)c(O)c3ccccc23)[C@H](O)[C@@H](O)[C@@H]1O [Example 123, (2S,3R,4R,5S,6R)-2-(3-((5-(4-Fluorophenyl)thiazol-2-yl)methyl)-4-hydroxynaphthalen-1-yl)-6-(hydroxymethyl)-tetrahydro-2H-pyran-3,4,5-triol] |
| 3.38 nM | C=CCOc1cc(Cl)c(Cc2ncc(-c3ccccc3)s2)cc1[C@@H]1O[C@H](CO)[C@@H](O)[C@H](O)[C@H]1O [Example 87, (2S,3R,4R,5S,6R)-2-(2-(Allyloxy)-4-chloro-5-((5-phenylthiazol-2-yl)methyl)phenyl)-6-(hydroxymethyl)tetrahydro-2H-pyran-3,4,5-triol] |
| 3.66 nM | (2S,3R,4R,5S,6R)-2-(4-Chloro-2-ethoxy-5-((5-(furan-3-yl)thiazol-2-yl)methyl)phenyl)-6-(hydroxymethyl)tetrahydro-2H-pyran-3,4,5-triol [Example 31] |
| 87.2 nM | OC[C@H]1O[C@@H](c2ccc(C(F)(F)F)c(Cc3ncc(-c4ccc(F)cc4)s3)c2)[C@H](O)[C@@H](O)[C@@H]1O [Example 52, (2S,3R,4R,5S,6R)-2-(3-((5-(4-Fluorophenyl)thiazol-2-yl)methyl)-4-(trifluoromethyl)phenyl)-6-(hydroxymethyl)tetrahydro-2H-pyran-3,4,5-triol] |
| 116 nM | CCOc1cnc(Cc2cc([C@@H]3O[C@H](CO)[C@@H](O)[C@H](O)[C@H]3O)c3ccccc3c2O)s1 [Example 128, (2S,3R,4R,5S,6R)-2-(3-((5-Ethoxythiazol-2-yl)methyl)-4-hydroxynaphthalen-1-yl)-6-(hydroxymethyl)-tetrahydro-2H-pyran-3,4,5-triol] |
| 38.7 nM | CCCCCCc1cnc(Cc2cc([C@@H]3O[C@H](CO)[C@@H](O)[C@H](O)[C@H]3O)c(Cl)cc2Cl)s1 [Example 67, (2S,3R,4R,5S,6R)-2-(2,4-Dichloro-5-((5-hexylthiazol-2-yl)methyl)phenyl)-6-(hydroxymethyl)tetrahydro-2H-pyran-3,4,5-triol] |
| 79.9 nM | CC(C)(C)OC(=O)OC[C@H]1O[C@@H](c2ccc(Cl)c(Cc3ncc(-c4ccco4)s3)c2)[C@H](O)[C@@H](O)[C@@H]1O [Example 162, tert-Butyl ((2R,3S,4R,5R,6S)-6-(4-chloro-3-((5-(furan-2-yl)thiazol-2-yl)methyl)phenyl)-3,4,5-trihydroxytetrahydro-2H-pyran-2-yl)methyl carbonate] |
| 29.9 nM | COc1c(Cc2ncc(C)s2)cc([C@@H]2O[C@H](CO)[C@@H](O)[C@H](O)[C@H]2O)c2ccccc12 [Example 98, (2R,3S,4R,5R,6S)-2-(Hydroxymethyl)-6-(4-methoxy-3-((5-methylthiazol-2-yl)methyl)naphthalen-1-yl)-tetrahydro-2H-pyran-3,4,5-triol] |
| 4.94 nM | COc1c(Cc2ncc(-c3cccs3)s2)cc([C@@H]2O[C@H](CO)[C@@H](O)[C@H](O)[C@H]2O)c2ccccc12 [Example 96, (2R,3S,4R,5R,6S)-2-(Hydroxymethyl)-6-(4-methoxy-3-((5-(thiophen-2-yl)thiazol-2-yl)methyl)naphthalen-1-yl)-tetrahydro-2H-pyran-3,4,5-triol] |
| 108 nM | CCCc1cnc(Cc2cn([C@@H]3O[C@H](CO)[C@@H](O)[C@H](O)[C@H]3O)c3ccccc23)s1 [Example 134, (2R,3S,4S,5R,6R)-2-(Hydroxymethyl)-6-(3((5-propylthiazol-2-yl)methyl)-1H-indol-1-yl)tetrahydro-2H-pyran-3,4,5-triol] |
| 13.8 nM | OC[C@H]1O[C@@H](n2cc(Cc3ncc(-c4cccs4)s3)c3ccccc32)[C@H](O)[C@@H](O)[C@@H]1O [Example 131, (2R,3S,4S,5R,6R)-2-(Hydroxymethyl)-6-(3-((5-(thiophen-2-yl)thiazol-2-yl)methyl)-1H-indol-1-yl)tetrahydro-2H-pyran-3,4,5-triol] |
| 25.6 nM | Cc1ccc([C@@H]2O[C@H](CO)[C@@H](O)[C@H](O)[C@H]2O)cc1Cc1ncc(-c2ccc(Cl)cc2)s1 [Example 38, (2S,3R,4R,5S,6R)-2-(3-((5-(4-Chlorophenyl)thiazol-2-yl)methyl)-4-methylphenyl)-6-(hydroxymethyl)tetrahydro-2H-pyran-3,4,5-triol] |
| 36.7 nM | N#Cc1ccc([C@@H]2O[C@H](CO)[C@@H](O)[C@H](O)[C@H]2O)cc1Cc1ncc(-c2ccco2)s1 [Example 108, 2-((5-(Furan-2-yl)thiazol-2-yl)methyl)-4-((2S,3R,4R,5S,6R)-3,4,5-trihydroxy-6-(hydroxymethyl)-tetrahydro-2H-pyran-2-yl)benzonitrile] |
| 243 nM | CCc1cnc(Cc2cc([C@@H]3O[C@H](CO)[C@@H](O)[C@H](O)[C@H]3O)cc3ccccc23)s1 [Example 105, (2S,3R,4R,5S,6R)-2-(4-((5-Ethylthiazol-2-yl)methyl)naphthalen-2-yl)-6-(hydroxymethyl)-tetrahydro-2H-pyran-3,4,5-triol] |
| 5.76 nM | OC[C@H]1O[C@@H](c2ccc(Cl)c(Cc3cnc(-c4ccccc4)s3)c2)[C@H](O)[C@@H](O)[C@@H]1O [Example 183, (2S,3R,4R,5S,6R)-2-(4-Chloro-3-((2-phenylthiazol-5-yl)methyl)phenyl)-6-(hydroxymethyl)-tetrahydro-2H-pyran-3,4,5-triol] |
| 9.35 nM | COc1cc(Cl)c(Cc2ncc(C3CCCC3)s2)cc1[C@@H]1O[C@H](CO)[C@@H](O)[C@H](O)[C@H]1O [Example 76, (2S,3R,4R,5S,6R)-2-(4-Chloro-5-((5-cyclopentylthiazol-2-yl)methyl)-2-methoxyphenyl)-6-(hydroxymethyl)tetrahydro-2H-pyran-3,4,5-triol] |
| 124 nM | OC[C@H]1O[C@@H](c2cn(Cc3ncc(-c4ccccc4)s3)c3ccccc23)[C@H](O)[C@@H](O)[C@@H]1O [Example 137, (2R,3S,4R,5R,6S)-2-(Hydroxymethyl)-6-(1-((5-phenylthiazol-2-yl)methyl)-1H-indol-3-yl)-tetrahydro-2H-pyran-3,4,5-triol] |
| 7.55 nM | CCOc1cc(Cl)c(Cc2ncc(-c3ccc(F)cc3)s2)cc1[C@@H]1O[C@H](CO)[C@@H](O)[C@H](O)[C@H]1O [Example 82, (2S,3R,4R,5S,6R)-2-(4-Chloro-2-ethoxy-5-((5-(4-fluorophenyl)thiazol-2-yl)methyl)phenyl)-6-(hydroxymethyl)tetrahydro-2H-pyran-3,4,5-triol] |
| 18.8 nM | CCOc1cnc(Cc2cc([C@@H]3O[C@H](CO)[C@@H](O)[C@H](O)[C@H]3O)ccc2Cl)s1 [Example 21, (2S,3R,4R,5S,6R)-2-(4-Chloro-3-((5-ethoxythiazol-2-yl)methyl)phenyl)-6-(hydroxymethyl)-tetrahydro-2H-pyran-3,4,5-triol] |
